# Source: PubChem BioAssay AID2060488 (Molecular Pharmacology Branch, DTP, NCI, 2025)
# Tested on: 966289-007-R4-J1-PDC complex spheroid viability
# Experiment: Anticancer human tumor 966289-007-R4-J1-PDC patient-derived pancreatic adenocarcinoma cell line growth inhibition [GQUAD]
# Conditions: for IC50: curve of first compound; for viability, T/C: stronger effect = lower value
# Summary of the method: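 Multi-cell-type spheroids of tumor cells with HUVEC and mesenchymal stem cells, treated with drug combinations. Concentrations descend in half-log steps from near clinical Cmax, or from 10 microM where Cmax is unknown; viability read-out.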
# [1] = second compound 0.0316 µM, first compound 0.0316 µM
# [2] = second compound 0.0316 µM, first compound 0.316 µM
# [3] = second compound 0.1 µM, first compound 0.0316 µM
# [4] = second compound 0.1 µM, first compound 0.316 µM
# [5] = second compound 0.316 µM, first compound 0.0316 µM
# [6] = second compound 0.316 µM, first compound 0.316 µM
# [7] = second compound 1 µM, first compound 0.0316 µM
# [8] = second compound 1 µM, first compound 0.316 µM
# [9] = second compound 3.16 µM, first compound 0.0316 µM
# [10] = second compound 3.16 µM, first compound 0.316 µM
# [11] = second compound 10 µM, first compound 0.0316 µM
# [12] = second compound 10 µM, first compound 0.316 µM
# 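Note: spheroids exposed to the agents for seven days before readout.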
# 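Throughout, for viability, T/C: percent viability relative to DMSO vehicle control wells taken as 100%.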
compound,measurement,setting,value
Cc1cccc(N(C)C(=O)C2C(O)CCN2c2nc(C)cc(C(F)(F)F)c2C#N)c1 (centres undefined) + CN(C)c1ccc(Nc2c3ccc(NC(=O)CCN4CCCC4)cc3nc3cc(NC(=O)CCN4CCCC4)ccc23)cc1,IC50,second compound 0.0316 µM,> 10 µM
same,IC50,second compound 0.1 µM,> 10 µM
same,IC50,second compound 0.316 µM,> 10 µM
same,IC50,second compound 1 µM,> 10 µM
same,IC50,second compound 3.16 µM,> 10 µM
same,IC50,second compound 10 µM,1.72 µM
same,"viability, T/C",[1],107%
same,"viability, T/C","second compound 0.0316 µM, first compound 0.1 µM",94.7%
same,"viability, T/C",[2],106%
same,"viability, T/C","second compound 0.0316 µM, first compound 1 µM",95.8%
same,"viability, T/C","second compound 0.0316 µM, first compound 3.16 µM",101%
same,"viability, T/C","second compound 0.0316 µM, first compound 10 µM",99.3%
same,"viability, T/C",[3],107%
same,"viability, T/C","second compound 0.1 µM, first compound 0.1 µM",98.5%
same,"viability, T/C",[4],103%
same,"viability, T/C","second compound 0.1 µM, first compound 1 µM",99.7%
same,"viability, T/C","second compound 0.1 µM, first compound 3.16 µM",102%
same,"viability, T/C","second compound 0.1 µM, first compound 10 µM",107%
same,"viability, T/C",[5],95.8%
same,"viability, T/C","second compound 0.316 µM, first compound 0.1 µM",100%
same,"viability, T/C",[6],105%
same,"viability, T/C","second compound 0.316 µM, first compound 1 µM",101%
same,"viability, T/C","second compound 0.316 µM, first compound 3.16 µM",102%
same,"viability, T/C","second compound 0.316 µM, first compound 10 µM",100%
same,"viability, T/C",[7],102%
same,"viability, T/C","second compound 1 µM, first compound 0.1 µM",105%
same,"viability, T/C",[8],107%
same,"viability, T/C","second compound 1 µM, first compound 1 µM",101%
same,"viability, T/C","second compound 1 µM, first compound 3.16 µM",99.6%
same,"viability, T/C","second compound 1 µM, first compound 10 µM",109%
same,"viability, T/C",[9],104%
same,"viability, T/C","second compound 3.16 µM, first compound 0.1 µM",106%
same,"viability, T/C",[10],101%
same,"viability, T/C","second compound 3.16 µM, first compound 1 µM",97.3%
same,"viability, T/C","second compound 3.16 µM, first compound 3.16 µM",102%
same,"viability, T/C","second compound 3.16 µM, first compound 10 µM",104%
same,"viability, T/C",[11],105%
same,"viability, T/C","second compound 10 µM, first compound 0.1 µM",103%
same,"viability, T/C",[12],96.1%
same,"viability, T/C","second compound 10 µM, first compound 1 µM",72.2%
same,"viability, T/C","second compound 10 µM, first compound 3.16 µM",25.2%
same,"viability, T/C","second compound 10 µM, first compound 10 µM",7.13%
Cn1ncnc1[C@H]1c2n[nH]c(=O)c3cc(F)cc(c23)N[C@@H]1c1ccc(F)cc1 + Cc1cnc(CNC(=O)c2c(=O)c3ccc(N4CCCN(C)CC4)nc3n3c2sc2ccccc23)cn1,IC50,second compound 0.0316 µM,0.0199 µM
same,IC50,second compound 0.1 µM,< 0.000999 µM
same,IC50,second compound 0.316 µM,< 0.000999 µM
same,IC50,second compound 1 µM,< 0.000999 µM
same,IC50,second compound 3.16 µM,< 0.000999 µM
same,IC50,second compound 10 µM,< 0.000999 µM
same,"viability, T/C","second compound 0.0316 µM, first compound 0.000999 µM",110%
same,"viability, T/C","second compound 0.0316 µM, first compound 0.00316 µM",98.6%
same,"viability, T/C","second compound 0.0316 µM, first compound 0.00999 µM",85.6%
same,"viability, T/C",[1],25.9%
same,"viability, T/C","second compound 0.0316 µM, first compound 0.0999 µM",12.9%
same,"viability, T/C",[2],7.23%
same,"viability, T/C","second compound 0.1 µM, first compound 0.000999 µM",42.7%
same,"viability, T/C","second compound 0.1 µM, first compound 0.00316 µM",25.4%
same,"viability, T/C","second compound 0.1 µM, first compound 0.00999 µM",17.3%
same,"viability, T/C",[3],12.5%
same,"viability, T/C","second compound 0.1 µM, first compound 0.0999 µM",5.67%
same,"viability, T/C",[4],3.67%
same,"viability, T/C","second compound 0.316 µM, first compound 0.000999 µM",13.8%
same,"viability, T/C","second compound 0.316 µM, first compound 0.00316 µM",10%
same,"viability, T/C","second compound 0.316 µM, first compound 0.00999 µM",7.01%
same,"viability, T/C",[5],6.26%
same,"viability, T/C","second compound 0.316 µM, first compound 0.0999 µM",4.34%
same,"viability, T/C",[6],2.5%
same,"viability, T/C","second compound 1 µM, first compound 0.000999 µM",5.61%
same,"viability, T/C","second compound 1 µM, first compound 0.00316 µM",5.81%
same,"viability, T/C","second compound 1 µM, first compound 0.00999 µM",4.63%
same,"viability, T/C",[7],3.57%
same,"viability, T/C","second compound 1 µM, first compound 0.0999 µM",2.89%
same,"viability, T/C",[8],1.85%
same,"viability, T/C","second compound 3.16 µM, first compound 0.000999 µM",4.32%
same,"viability, T/C","second compound 3.16 µM, first compound 0.00316 µM",4.8%
same,"viability, T/C","second compound 3.16 µM, first compound 0.00999 µM",3.43%
same,"viability, T/C",[9],2.17%
same,"viability, T/C","second compound 3.16 µM, first compound 0.0999 µM",0.89%
same,"viability, T/C",[10],0.51%
same,"viability, T/C","second compound 10 µM, first compound 0.000999 µM",0.1%
same,"viability, T/C","second compound 10 µM, first compound 0.00316 µM",0.15%
same,"viability, T/C","second compound 10 µM, first compound 0.00999 µM",0.12%
same,"viability, T/C",[11],0.13%
same,"viability, T/C","second compound 10 µM, first compound 0.0999 µM",0.66%
same,"viability, T/C",[12],0.13%
